Like-named read-outs stand apart in the source and are kept apart here.
Columns and labels:
wild-type α7 nAChR = wild-type α7 nAChR (Rattus norvegicus, UniProt Q05941); assay: Two-electrode voltage-clamp recording of Xenopus oocytes expressing wild-type α7
Procedure: Mature (>9 cm) female Xenopus laevis African toads (Nasco, Ft. Atkinson, Wis.) were used as a source of oocytes. Prior to surgery, frogs were anesthetized by placing the animal in a 2 g/L solution of MS222 (3-aminobenzoic acid ethyl ester). Oocytes were removed from an incision made in the abdomen.
(§3) Subsequently, stage 5 oocytes were isolated and injected with 50 nl each of a mixture of the appropriate subunit cRNAs following harvest. Recordings were made 3 to 21 days after injection depending on the cRNAs being tested.
(§4) Voltage-clamp recording of whole oocate responses. Data were obtained by means of two-electrode voltage-clamp recording. […] This extracellular solution was used for all experiments unless otherwise noted.
(§5) Bath solution and drug applications are applied through a linear perfusion system to oocytes placed in Lucite chamber with a total volume of 0.5 ml. Drug delivery involves pre-loading a 1.8 ml length of tubing at the terminus of the perfusion system, while a Mariotte flask filled with Ringer's solution is used to maintain constant perfusion. Applications of drug solutions are then synchronized with acquisition. […] In addition, some oocyte recordings were made using a beta version of the OpusXpress 6000A (Axon Instruments, Union City, Calif.). OpusXpress is an integrated system that provides automated impalement and voltage clamp, which in our case permitted the study of four oocytes in parallel. Cells were automatically perfused with bath solution, and agonist solutions were delivered from a 96-well compound plate. In experiments using the OpusXpress system, the voltage and current electrodes were filled with 3 M KCl. In all experiments, bath flow rates were set at 6 ml/minute.
(§6) Experimental protocols and analysis of data from Xenopus oocytes. Current responses to drug application were studied under two-electrode voltage clamp at a holding potential of −50 mV unless otherwise noted (−60 mV for the OpusXpress system). Holding currents immediately prior to agonist application were subtracted from measurements of the peak response to agonist. All drug applications were separated by a wash period of 5 minutes unless otherwise noted. […] Means and standard errors (SEM) were calculated from the normalized responses of at least four oocytes for each experimental concentration.
(§7) For concentration-response relations, data were plotted using Kaleidagraph 3.0.2 (Abelbeck Software; Reading, Pa.), and curves were generated using the Hill equation: [formula] where Imax denotes the maximal response for a particular agonist/subunit combination, and n represents the Hill coefficient. Imax, n, and the EC50 were all unconstrained for the fitting procedures.
(§8) Calculations of peak amplitudes and net charge were made using pClamp either during acquisition or during subsequent Clampfit analysis.

L247T mutant = L247T mutant (UniProt P22770, L270T, species not given); assay type: cell-based; conditions: for type of activity (agonist / antagonist): L247T
rat α7 TM2 T6'S = rat α7 TM2 T6'S (Rattus norvegicus, UniProt Q05941, T267S); assay: Two-electrode voltage-clamp recording of Xenopus oocytes expressing α7 TM2 T6'S mutant
Procedure: Expression in Xenopus oocvtes. Mature (>9 cm) female Xenopus laevis African toads (Nasco, Ft. Atkinson, Wis.) were used as a source of oocytes. Prior to surgery, frogs were anesthetized by placing the animal in a 2 g/L solution of MS222 (3-aminobenzoic acid ethyl ester). Oocytes were removed from an incision made in the abdomen.
as §3, §4, §5, §6, §7, §8

rat α7 TM2 T6'F = molecular target: T1, rat α7 TM2 T6'F (Rattus norvegicus, UniProt Q05941, T267F); assay: Two-electrode voltage-clamp recording of Xenopus oocytes expressing α7 TM2 T6'F mutant; assay type: cell-based
T1 construct: expressed in transfected cells; host or cells: Xenopus laevis oocytes injected with cRNA
Text: Site-directed mutagenesis.
(§1) Expression in Xenopus oocvtes.
(§2) Voltage-clamp recording of whole oocate responses.

muscle-type receptors = molecular target: T2, muscle-type receptors (Mus musculus, UniProt P02716+P04756); assay: Two-electrode voltage-clamp recording of Xenopus oocytes expressing muscle-type receptors; assay type: cell-based
T2 construct: expressed in transfected cells; host or cells: Xenopus laevis oocytes injected with cRNA
Text: as §1, §2

NCCc1c[nH]c2ccc(O)cc12 [5-HT]
type of activity (agonist / antagonist / potentiation) (wild-type α7 nAChR; Wild type): antagonist | type of activity (agonist / antagonist) (L247T mutant): agonist | type of activity (agonist / antagonist / potentiation) (rat α7 TM2 T6'S; T6'S): antagonist

Oc1ccc2[nH]ccc2c1 [5HI, 5-hydroxy-indole]
type of activity (agonist / antagonist / potentiation) (wild-type α7 nAChR; Wild type): potentiates | type of activity (agonist / antagonist / potentiation) (rat α7 TM2 T6'S; T6'S): does not potentiate

O=C1NCC2(CN3CCC2CC3)O1 (centres unmarked) [AR-R17779]
% agonist (wild-type α7 nAChR; Wild type): 78% agonist 10 μM | % agonist (rat α7 TM2 T6'S; T6'S): 90% agonist 30 μM

C[N+](C)(C)CCO [Choline]
EC50 (wild-type α7 nAChR): 300 µM | % agonist (wild-type α7 nAChR; Wild type): 100% agonist 300 μM | EC50 (L247T mutant): 12 µM | EC50 (rat α7 TM2 T6'S): 2000 µM | EC50 (rat α7 TM2 T6'S; EC50, T6'S column): ~360 µM | % agonist (rat α7 TM2 T6'S; T6'S): 95% agonist 2 mM

O=c1cccc2n1C[C@@H]1CNC[C@H]2C1 [Cytisine]
% agonist (wild-type α7 nAChR): 73% agonist 13 μM | EC50 (wild-type α7 nAChR): 13 µM | % agonist (rat α7 TM2 T6'S): 80% agonist 43 μM | EC50 (rat α7 TM2 T6'S): 43 µM

COc1ccc(/C=C2\CCCN=C2c2cccnc2)c(OC)c1 [GTS-21 (DMXB)]
EC50 (wild-type α7 nAChR): 5 µM | % agonist (wild-type α7 nAChR; Wild type): 32% | type of activity (agonist / antagonist) (L247T mutant): full | EC50 (rat α7 TM2 T6'S): 3 µM | % agonist (rat α7 TM2 T6'S; T6'S): 12%

C[N+](C)(C)CCCCCC[N+](C)(C)C [Hexamethonium]
type of activity (agonist / antagonist / potentiation) (wild-type α7 nAChR; Wild type): antagonist | type of activity (agonist / antagonist) (L247T mutant): agonist | type of activity (agonist / antagonist / potentiation) (rat α7 TM2 T6'S; T6'S): antagonist

CNCC/C=C/c1cccnc1 [TC-2403]
EC50 (wild-type α7 nAChR): 240 µM | % agonist (wild-type α7 nAChR; Wild type): 16% | EC50 (rat α7 TM2 T6'S): 400 µM | % agonist (rat α7 TM2 T6'S; T6'S): 18% agonist

CN1[C@@H]2CC[C@H]1C[C@@H](OC(=O)c1c[nH]c3ccccc13)C2 [Tropisetron]
% agonist (wild-type α7 nAChR; Wild type): 38% | % agonist (rat α7 TM2 T6'S; T6'S): 30%

COc1cc2c3cc1Oc1cc(ccc1O)C[C@@H]1c4c(cc(OC)c(O)c4Oc4ccc(cc4)C[C@@H]3N(C)CC2)CC[N+]1(C)C [Tubocurarine]
type of activity (agonist / antagonist / potentiation) (wild-type α7 nAChR; Wild type): antagonist | type of activity (agonist / antagonist) (L247T mutant): agonist | type of activity (agonist / antagonist / potentiation) (rat α7 TM2 T6'S; T6'S): antagonist

[Zn+2] [Zinc]
type of activity (agonist / antagonist / potentiation) (wild-type α7 nAChR; Wild type): antagonist | type of activity (agonist / antagonist) (L247T mutant): agonist | type of activity (agonist / antagonist / potentiation) (rat α7 TM2 T6'S; T6'S): antagonist

C[N+](C)(C)CCOC(=O)CCC(=O)OCC[N+](C)(C)C [succinylcholine]
activation of receptor (wild-type α7 nAChR): relatively ineffective | concentration-response function (wild-type α7 nAChR; full range of concentrations): respond poorly | activation of receptor (rat α7 TM2 T6'F; 100 μM succinylcholine): dramatic increase in sensitivity | concentration-response function (rat α7 TM2 T6'F; full range of concentrations): relatively potent, full agonist | type of activity (muscle-type receptors): Selective Agonist | activation of receptor (rat α7 TM2 T6'S): virtually no response | concentration-response function (rat α7 TM2 T6'S; full range of concentrations): respond poorly

— US20050170360A1, “Variant neuronal nicotinic alpha-7 receptor and methods of use” (priority 2004, published 2005)
